Experimental data published in patent publication US20020183384A1, “Methods of treating nuclear factor-kappa B mediated diseases and disorders” (priority 2001, published 2002).

Each molecule was assayed on NF-κB mediated transcription (assay: NF-κB driven β-lactamase reporter assay in ECV-304 NF-κB.βlaZ cells (AURORA CCF2 fluorescence)). Conditions: 10 μM compound; ECV-304 NF-κB.βlaZ cells stimulated with 10 ng/mL TNF-α or 100 pg/mL IL-1β, 6 hours at 37° C.; inhibition of maximum blue/green ratio.
Type: cell-based, human
Excerpt: Introduction: Described below is an in vitro, cell-based, high throughput screening assay that reliably identifies inhibitors of NF-κB mediated transcription.
The assay takes advantage of AURORA (Aurora Bioscience Corporation, La Jolla, Calif.) fluorescence technology. Endothelial cell vein-304 (ECV-304) cells, an endothelial-like immortalized cell type, may be stably transfected with a plasmid vector containing the cDNA for the enzyme β-lactamase (under the control of a basal promoter, Stratagene pNFκB-luc vector) and 5 copies of an human immunodeficiency virus-1 (HIV-1) NF-κB binding site. ECV-304 cells are described by Takahashi K. et al. in Spontaneous Transformation and Immobilization of Human Endothelial Cells, In Vitro Cell. Dev. Biol. 1990;25:265-274. Activation of NF-κB in ECV-304 by cytokines such as TNF-α or interleuken-1 beta (IL-1β) results in the production of β-lactamase, which cleaves a green fluorescent substrate (excitation/emission wavelengths 395 nm1530 nm) to yield a blue fluorescent product (excitation/emission wavelengths 395 nm/460 nm). Visually, the uncleaved green fluorescent substrate is sequestered intracellularly and emits green fluorescence, while the cleaved product emits blue fluorescence. Fluorescence is quantitated spectrophotometrically, and the spectral intensity of blue fluorescence versus green fluorescence can be used to calculate the degree of activation of NF-κB.
The assay was performed as outlined here and described in detail below. ECV-304 cells permanently transfected with the NF-κB driven β-lactamase gene (ECV-304 NF-κB.βlaZ) were plated in clear-bottom, black 96-well plates (1.25×10^4 cells/well) in media-199 (M-199) media containing 2% fetal bovine serum (FBS). […] The AURORA fluorescent disclosing reagent was then added. After one additional hour, the plates were read in a fluorometer at the blue 395 nm/460 nm (excitation/emission) and green 395 nm/530 nm wavelengths. Then the blue/green emission ratio was calculated. […] An IC50 for said sulfonylaminocarbonyl derivative was determined from a dose-response curve. This assay was designed to be optionally run in either high or low throughput screening modes.
Five copies of the HIV-1 NF-κB binding site (5′-[…]-3′) along with a TATA box were inserted into the EcorRI/BamHI sites of plasmid pMCRBlaZ to create plasmid p5×KBBlaZ, which procedure is illustrated in Scheme 1 below. [formula]
Cells were selected for antibiotic resistance with Zeocin for approximately 2 weeks. After the stable population had been expanded to a significant number of cells, it was stimulated with IL-1β and stained with AURORA CCF2 dye, a membrane permeant, intracellularly-trapped, fluorescent substrate. Cells that fluoresced blue (indicating a positive response of the NF-κB/β-lactamase reporter to stimulation by IL-1β) in the stimulated/stained population were then sorted by flow cytometry into a pool. The pool was expanded and stained with CCF2, and then the cells that fluoresced green from this unstimulated population (indicating a low background of the NF-κB/β-lactamase reporter construct) were cloned by flow cytometry after adding 1 cell per well in 96-well plates. Clones were allowed to expand. Each cloned cell line was then examined for fold stimulation after stimulation with IL-1β using a CCF2 reporter assay, and these stimulated cells were compared to unstimulated cells.
Cells: ECV-304 NF-κB β-Lactamase clone 1E8
Inhibitors: Prepared stock solutions of aminosulfonyl derivatives at 10 mM concentration in DMSO;
c) Added 10 μL of B into appropriate well in assay plate (the final concentration of drug is 10 μM), and […]
In the case of COC(=O)C(C)(Cc1c[nH]c2ccccc12)NS(=O)(=O)NC(=O)OC1C2CC3CC(C2)CC1C3 (racemic) [Example 101, DL-Tryptophan, α-methyl-N-[[[(tricyclo[3.3.1.1^3,7]dec-2-yloxy)-carbonyl]amino]sulfonyl]-, methyl ester], the “Percent Inhibition at 10 μM” value was <10%. CC1(C)OCC(NC(=O)NS(=O)(=O)NC2COC(C)(C)OC2c2ccccc2)C(c2ccccc2)O1 (single isomer, unassigned) [Example 105, Urea, N-(2,2-dimethyl-4-phenyl-1,3-dioxan-5-yl)-N′-[[(2,2-dimethyl-4-phenyl-1,3-dioxan-5-yl)amino]sulfonyl]-, stereoisomer] was tested, and the “Percent Inhibition at 10 μM” value was <10%. In the case of Cc1cc(C(C)(C)C)c(OC(=O)NS(=O)(=O)NC(c2ccccc2)c2ccccc2)c(C(C)(C)C)c1 [Example 3, Carbamic acid, [[(diphenylmethyl)amino]sulfonyl]-, 2,6-bis(l,1-dimethylethyl)-4-methylphenyl ester], the “Percent Inhibition at 10 μM” value was 79.34%. CC(C)c1cccc(C(C)C)c1NC(=O)NS(=O)(=O)Nc1c(C(C)C)cccc1C(C)C [Example 7, Urea, N-[2 ,6-bis(1-methylethyl)phenyl]-N′-[[[2,6-bis(1-methylethyl)phenyl]-amino]sulfonyl]-] was tested, and the “Percent Inhibition at 10 μM” value was 37.04%. With CC(C)c1cccc(C(C)C)c1OC(=O)NS(=O)(=O)Nc1nc2ccccc2[nH]1 [Example 16, Carbamic acid, [(1H-benzimdazol-2-ylamino)sulfonyl]-, 2,6-bis(1-methylethyl)-phenyl ester] the “Percent Inhibition at 10 μM” value was <10%.

Same assay, conditions: Homo sapiens, ECV-304, 6 h, 10 μM compound; ECV-304 NF-κB.βlaZ cells stimulated with 10 ng/mL TNF-α or 100 pg/mL IL-1β, 6 hours at 37° C.; inhibition of maximum blue/green ratio; read-out: Percent Inhibition at 10 μM
CC(C)c1cccc(C(C)C)c1NC(=O)NS(=O)(=O)NC(c1ccccc1)c1ccccc1 [Example 8, Urea, N-[2,6-bis(1-methylethyl)phenyl]-N′-[[(diphenylmethyl)amino]-sulfonyl]-] was tested, and the inhibition at 10 µM was < 10%. Molecule CC(C)c1cccc(C(C)C)c1NC(=O)NS(=O)(=O)NCC(c1ccccc1)c1ccccc1 [Example 9, Urea, N-[2,6-bis(1-methylethyl)phenyl]-N′-[[(2,2-diphenylethyl)amino]-sulfonyl]-] has an inhibition at 10 µM of 33.1%. Molecule CC(C)c1cccc(C(C)C)c1NC(=O)NS(=O)(=O)N(Cc1ccccc1)Cc1ccccc1 [Example 17, N-[2,6-bis(1-methylethyl)phenyl]-N′-[[bis(phenylmethyl)amino]-sulfonyl]-urea] has an inhibition at 10 µM of 43.8%. Work on CC(C)c1cccc(C(C)C)c1NS(=O)(=O)NC(=O)NC(c1ccccc1)c1ccccc1 [Example 18, N-[[[2,6-bis(1-methylethyl)phenyl]amino]sulfonyl]-N′-(diphenylmethyl)-urea] yielded an inhibition at 10 µM of 35.9%. Molecule CC(C)c1cccc(C(C)C)c1NC(=O)NS(=O)(=O)NC1c2ccccc2-c2ccccc21 [Example 19, N-[2,6-bis(1-methylethyl)phenyl]-N′-[(9H-fluoren-9-ylamino)-sulfonyl]-urea] has an inhibition at 10 µM of 20.2%. CC(C)c1cccc(C(C)C)c1NC(=O)NS(=O)(=O)N(C(C)C)C(C)C [Example 20, N-[2,6-bis(1-methylethyl)phenyl]-N′-[[bis(1-methylethyl)amino]-sulfonyl]-urea] was tested, and the inhibition at 10 µM was < 10%. For CCCCN(CCCC)S(=O)(=O)NC(=O)Nc1c(C(C)C)cccc1C(C)C [Example 21, N-[2,6-bis(1-methylethyl)phenyl]-N′-[(dibutylamino)sulfonyl]-urea], the inhibition at 10 µM was 29.4%. Molecule CC(C)c1cccc(C(C)C)c1NC(=O)NS(=O)(=O)N(Cc1ccccc1)C(C)C [Example 22, N-[2,6-bis(1-methylethyl)phenyl]-N′-[[(1-methylethyl)-(phenylmethyl)amino]-sulfonyl]-urea] has an inhibition at 10 µM of 20.2%. CCCCCCCCN(CCCCCCCC)S(=O)(=O)NC(=O)Nc1c(C(C)C)cccc1C(C)C [Example 23, N-[2,6-bis(1-methylethyl)phenyl]-N′-[(dioctylamino)sulfonyl]-urea] showed an inhibition at 10 µM of 38.7%.

Same assay, conditions: Homo sapiens; 10 μM compound; ECV-304 NF-κB.βlaZ cells stimulated with 10 ng/mL TNF-α or 100 pg/mL IL-1β, 6 hours at 37° C.; inhibition of maximum blue/green ratio; read-out: Percent Inhibition at 10 μM
With CC(C)c1cccc(C(C)C)c1OC(=O)NS(=O)(=O)NC(c1ccccc1)c1ccccc1 [Example 1, Carbamic acid, [[(diphenylmethyl)amino]sulfonyl]-, 2,6-bis(1-methylethyl)phenyl ester] the inhibition at 10 µM was 24.8%. CC(C)(C)c1cccc(C(C)(C)C)c1OC(=O)NS(=O)(=O)NC(c1ccccc1)c1ccccc1 [Example 2, Carbamic acid, [[(diphenylmethyl)amino]sulfonyl]-, 2,6-bis(1,1-dimethylethyl)phenyl ester] was tested, and the inhibition at 10 µM was 37.2%. With CC(C)c1cccc(C(C)C)c1NS(=O)(=O)NC(=O)Oc1c(C(C)C)cccc1C(C)C [Example 4, Carbamic acid, [[[2,6-bis(1-methylethyl)phenyl]amino]sulfonyl]-, 2,6-bis(1-methylethyl)phenyl ester] the inhibition at 10 µM was 35.3%. CC(C)c1cccc(C(C)C)c1NS(=O)(=O)NC(=O)Oc1c(C(C)(C)C)cccc1C(C)(C)C [Example 5, Carbamic acid, [[[2,6-bis(1-methylethyl)phenyl]amino]sulfonyl]-, 2,6-bis(1,1-dimethylethyl)phenyl ester] was tested, and the inhibition at 10 µM was 56.4%. Molecule Cc1cc(C(C)(C)C)c(OC(=O)NS(=O)(=O)Nc2c(C(C)C)cccc2C(C)C)c(C(C)(C)C)c1 [Example 6, Carbamic acid, [[[2,6-bis(1-methylethyl)phenyl]amino]sulfonyl]-, 2,6-bis(1,1-dimethylethyl)-4-methylphenyl ester] has an inhibition at 10 µM of 64.9%. CC(C)c1cccc(C(C)C)c1OC(=O)NS(=O)(=O)NCC(c1ccccc1)c1ccccc1 [Example 10, Carbamic acid, [[(2,2-diphenylethyl)amino]sulfonyl]-, 2,6-bis(1-methylethyl)-phenyl ester] showed an inhibition at 10 µM of 39.7%. In the case of CC(C)(C)c1cccc(C(C)(C)C)c1OC(=O)NS(=O)(=O)NCC(c1ccccc1)c1ccccc1 [Example 11, Carbamic acid, [[(2,2-diphenylethyl)amino]sulfonyl]-, 2,6-bis(1,1-dimethylethyl)-phenyl ester], the inhibition at 10 µM was 50.1%. Cc1cc(C(C)(C)C)c(OC(=O)NS(=O)(=O)NCC(c2ccccc2)c2ccccc2)c(C(C)(C)C)c1 [Example 12, Carbamic acid, [[(2,2-diphenylethyl)amino]sulfonyl]-, 2,6-bis(1,1-dimethylethyl)-4-methylphenyl ester] gave an inhibition at 10 µM of 57%. With CC(C)c1cccc(C(C)C)c1OC(=O)NS(=O)(=O)Nc1ccccc1 [Example 13, Carbamic acid, [(phenylamino)sulfonyl]-, 2,6-bis(1-methylethyl)phenyl ester] the inhibition at 10 µM was < 10%. In the case of CC(C)(C)c1cc(O)cc(C(C)(C)C)c1OC(=O)NS(=O)(=O)Nc1ccccc1 [Example 14, Carbamic acid, [(phenylamino)sulfonyl]-, 2,6-bis(1,1-dimethylethyl)-4-hydroxyphenyl ester], the inhibition at 10 µM was 13.8%. CC(C)(C)c1cccc(C(C)(C)C)c1OC(=O)NS(=O)(=O)Nc1ccccc1 [Example 15, Carbamic acid, [(phenylamino)sulfonyl]-, 2,6-bis(1,1-dimethylethyl)-phenyl ester] was tested, and the inhibition at 10 µM was 12.6%. CC(C)(C)c1cccc(C(C)(C)C)c1OC(=O)NS(=O)(=O)N(Cc1ccccc1)Cc1ccccc1 [Example 24, Carbamic acid, [[bis(phenylmethyl)amino]sulfonyl]-, 2,6-bis(1,1-dimethylethyl)-phenyl ester] gave an inhibition at 10 µM of 31%. For CC(C)c1cccc(C(C)C)c1OC(=O)NS(=O)(=O)N(Cc1ccccc1)Cc1ccccc1 [Example 25, Carbamic acid, [[bis(phenylmethyl)amino]sulfonyl]-, 2,6-bis(1-methylethyl)-phenyl ester], the inhibition at 10 µM was 33.2%.
